For ten compounds, GI50 and TGI results are on record in PubChem BioAssay (NCI).

Each structure is given as a SMILES string.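 Results reflect a 48-hour exposure of cells in 96-well plates to compound at five concentrations. Here, GI50 denotes the concentration required for 50% inhibition of growth. Definition used: TGI = concentration required for complete inhibition of growth.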 A value given as a limit tells only on which side of the number the result lay.

Holding throughout (experiment): growth of human tumour cells (NCI), 48 h
Test [1] deals with MALME-3M melanoma.
The subject of test [2] is HT29 colon.
Test [3] concerns MCF7 breast.
The subject of test [4] is IGROV1 ovarian.
Test [5] concerns 786-0 renal.
The subject of test [6] is TK-10 renal.
Test [7] deals with SK-MEL-5 melanoma.
Test [8] deals with SN12C renal.
In test [9] the test system is A549 NSCLC.
Test [10] deals with PC-3 prostate.

Turning to `CC(=Nc1ccccc1)C1=C(O)C(Cc2cccc(F)c2)NC1=O` (stereo not drawn), the GI50 in test [1] is 0.0419 µM; in test [2], 0.0372 µM; in test [3] it was 0.0354 µM; in test [4], 0.0854 µM; in test [5] it was 0.0857 µM; in test [6], 6.15 µM. The GI50 is 0.0343 µM in test [7], 0.129 µM in test [8], 0.0511 µM in test [9] and 0.0399 µM in test [10]. Further, the TGI in test [1] is over 100 µM; in test [2], 13.4 µM; in test [3] it was over 100 µM; in [4], over 100 µM; in [5] it was over 100 µM; in test [6] it was over 100 µM. The TGI in test [7] was 1.82 µM; in [8], over 100 µM; in test [9], over 100 µM; in [10], over 100 µM.

Turning to `O=C(O)C(Br)C(Br)C(=O)O` (stereo not drawn), the TGI in test [1], in [2], in test [3], in test [4], in test [5] and in test [6] was over 100 µM in each case. Moreover, the TGI in test [7], in [8], in test [9] and in test [10] was over 100 µM in each case.

Take `CCC#CC[C@H](O)C/C=C1/C(=O)C=C[C@@H]1C/C=C\CCCC(=O)OC`: the GI50 is 1.88 µM in [1]; 0.991 µM in [2]; 0.297 µM in test [3]; 1.93 µM in test [4]; 1.22 µM in test [5]; 1.66 µM in test [6]. The GI50 in test [7] is 0.767 µM; in test [8] it was 1.77 µM; in test [9] it was 1.6 µM; in [10], 1.42 µM. Besides, the TGI in test [1] was found to be 8.42 µM; in test [2], 2.46 µM; in test [3], 7.01 µM; in [4], 7.84 µM; in test [5], 2.67 µM; in [6], 3.97 µM. In addition, the TGI in [7] was determined as 1.46 µM; in test [8] it was 8.12 µM; in [9] it was 5.52 µM; in test [10], 5.25 µM.

Take `Cc1c(NC(=O)CCl)c(=O)oc2c(C)c3occc(=O)c3cc12`: the TGI was determined as 44.4 µM in test [1]; 35.3 µM in test [2]; 66.2 µM in test [3]; 31.2 µM in test [4]; 32.4 µM in [5]; 42.6 µM in test [6]. Besides, the figures for the TGI in test [7] and in [9] were 23.6 µM and 35 µM, respectively.

Consider `O=C(O)CNc1ccc(Cl)c(Cl)c1`, for which the TGI in test [2] was over 100 µM; in [3], 38.7 µM; in test [4] it was 26.3 µM; in test [5] it was 92.6 µM; in test [6], 58.7 µM; in test [7], 87.9 µM. Besides, the values for the TGI in test [8], in [9] and in test [10] were 94.3 µM, over 100 µM and 76 µM, respectively.

Turning to `O=C1CSC(c2ccc(-c3nc4ccccc4[nH]3)cc2)=N1`, the GI50 was 8.89 µM in [3]; 21.9 µM in test [4]; 42.5 µM in [5]; over 50 µM in test [6]; 13 µM in [7]; over 50 µM in [8]. The GI50 is 18.8 µM in [9] and over 50 µM in [10]. Besides, the TGI in test [3], in [4], in [5], in [6], in test [7] and in test [8] was over 50 µM throughout. The TGI in [9] and in test [10] was over 50 µM in each case.

For the compound `Cc1c(N)nc([C@H](CC(N)=O)NC[C@H](N)C(N)=O)nc1C(=O)N[C@H](C(=O)N[C@H](C)[C@@H](O)CC(=O)N[C@H](C(=O)NC(O[C@@H]1O[C@@H](C)[C@@H](N)[C@@H](O)[C@H]1O)C(O)c1nc(-c2nc(C(=O)NCCCCN)cs2)cs1)[C@@H](C)O)[C@@H](O[C@@H]1O[C@@H](CO)[C@@H](O)[C@H](O)[C@@H]1O[C@H]1O[C@H](CO)[C@@H](O)[C@H](OC(N)=O)[C@@H]1O)c1c[nH]cn1` (stereo partly drawn), the TGI in test [2], in test [3], in [4], in [5], in test [6] and in [7] was over 50 µM in each case. The TGI in test [8], in test [9] and in [10] was over 50 µM in each case.

Turning to `CCCCCCCCCCCC[N+](C)(C)Cc1ccccc1`, the GI50 in test [2] is 1.23 µM; in test [3], 2.01 µM; in [4] it was 1.43 µM; in test [5] it was 2.37 µM; in test [7], 1.33 µM; in [8] it was 2.11 µM. In addition, the GI50 in test [9] is 2.04 µM; in [10], 0.49 µM. The TGI in test [2] turned out to be 3.24 µM; in test [3], 7.7 µM; in test [4] it was 3.66 µM; in test [5], 6.15 µM; in [7], 2.62 µM; in [8], 5.12 µM. For the same compound, the TGI in [9] stood at 5.21 µM; in test [10], 3.25 µM.

`CCNc1cc2oc(=O)cc(C(F)(F)F)c2cc1C`: the TGI in test [2], in [3], in test [4], in test [5], in test [6] and in test [7] was over 100 µM each time. For the same compound, the TGI in [8], in test [9] and in test [10] was over 100 µM each time.

In the case of `O=c1cc(-c2ccccc2)oc2ccc(OC/C(=N/O)c3ccc(F)cc3)cc12`, the GI50 in test [2] was 2.1 µM; in [4], 21.7 µM; in test [5] it was 8.97 µM; in test [6], over 50 µM; in [7], 1.61 µM; in test [8] it was 6.59 µM. Moreover, the GI50 was 7.12 µM in [9] and 2.72 µM in test [10]. In addition, the TGI is 41.6 µM in test [2]; over 50 µM in [4]; over 50 µM in test [5]; over 50 µM in test [6]; 6.23 µM in test [7]; 14.5 µM in test [8]. Also, the TGI in [9] is over 50 µM; in [10], 12.3 µM.
